In the kinase profiling compilation of Christmann-Franck et al. (2016):

Tests used:
Experiment in all cases: radiometric filter-binding kinase assay, Kinase HotSpot
Conditions in all cases: compound 0.5 µM; ATP 10 µM
CSF1R (human) = CSF1R (human) (UniProt P07333)
SRPK2 (human) = SRPK2 (human) (UniProt P78362)
PRKD2 (human) = PRKD2 (human) (UniProt Q9BZL6)
BRSK2 (human) = BRSK2 (human) (UniProt Q8IWQ3)
TEC (human) = TEC (human) (UniProt P42680)
SRPK1 (human) = SRPK1 (human) (UniProt Q96SB4)
RET (human) = RET (human) (UniProt P07949)
MAP2K2 (human) = MAP2K2 (human) (UniProt P36507)
RAF1 (human) = RAF1 (human) (UniProt P04049)
CDK6 CCND3 (human) = CDK6 CCND3 (human) (UniProt P30281+Q00534)
RPS6KA6 KD1 KD2 (human) = RPS6KA6 KD1 KD2 (human) (UniProt Q9UK32)
DYRK2 (human) = DYRK2 (human) (UniProt Q92630)
CAMK2D (human) = CAMK2D (human) (UniProt Q13557)
RPS6KA4 KD2 (human) = RPS6KA4 KD2 (human) (UniProt O75676)
TYRO3 (human) = TYRO3 (human) (UniProt Q06418)
FLT3 (human) = FLT3 (human) (UniProt P36888)
CHEK2 (human) = CHEK2 (human) (UniProt O96017)
VRK1 (human) = VRK1 (human) (UniProt Q99986)
TGFBR2 (human) = TGFBR2 (human) (UniProt P37173)
EPHA2 (human) = EPHA2 (human) (UniProt P29317)
MAP2K1 (human) = MAP2K1 (human) (UniProt Q02750)
ACVR1B (human) = ACVR1B (human) (UniProt P36896)
HCK (human) = HCK (human) (UniProt P08631)
EPHB3 (human) = EPHB3 (human) (UniProt P54753)
DYRK1A (human) = DYRK1A (human) (UniProt Q13627)
RPS6KB1 (human) = RPS6KB1 (human) (UniProt P23443)
SRMS (human) = SRMS (human) (UniProt Q9H3Y6)
NEK2 (human) = NEK2 (human) (UniProt P51955)
FGFR1 (human) = FGFR1 (human) (UniProt P11362)
MAP3K14 (human) = MAP3K14 (human) (UniProt Q99558)
CSNK1G2 (human) = CSNK1G2 (human) (UniProt P78368)
DYRK3 (human) = DYRK3 (human) (UniProt O43781)
BRSK1 (human) = BRSK1 (human) (UniProt Q8TDC3)
CLK1 (human) = CLK1 (human) (UniProt P49759)
FRK (human) = FRK (human) (UniProt P42685)
DYRK1B (human) = DYRK1B (human) (UniProt Q9Y463)
GSG2 (human) = GSG2 (human) (UniProt Q8TF76)
CDK5 CDK5R1 p35 (human) = CDK5 CDK5R1 p35 (human) (UniProt Q00535+Q15078)
NEK6 (human) = NEK6 (human) (UniProt Q9HC98)
PLK3 (human) = PLK3 (human) (UniProt Q9H4B4)
MERTK (human) = MERTK (human) (UniProt Q12866)
CSNK1A1 (human) = CSNK1A1 (human) (UniProt P48729)
Chain of CSNK1A1 (human) (P48729 whole entry, looked up): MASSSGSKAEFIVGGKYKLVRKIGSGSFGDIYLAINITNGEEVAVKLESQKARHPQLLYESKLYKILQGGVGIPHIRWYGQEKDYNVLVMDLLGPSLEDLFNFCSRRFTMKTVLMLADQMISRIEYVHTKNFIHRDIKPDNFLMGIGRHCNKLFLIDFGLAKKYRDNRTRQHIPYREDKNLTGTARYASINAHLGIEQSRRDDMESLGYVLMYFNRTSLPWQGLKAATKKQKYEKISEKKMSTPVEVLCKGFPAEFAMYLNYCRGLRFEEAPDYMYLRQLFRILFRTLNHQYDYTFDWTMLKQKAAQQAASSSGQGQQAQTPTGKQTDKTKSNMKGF

Chain of CAMK2D (human) (Q13557 whole entry, looked up): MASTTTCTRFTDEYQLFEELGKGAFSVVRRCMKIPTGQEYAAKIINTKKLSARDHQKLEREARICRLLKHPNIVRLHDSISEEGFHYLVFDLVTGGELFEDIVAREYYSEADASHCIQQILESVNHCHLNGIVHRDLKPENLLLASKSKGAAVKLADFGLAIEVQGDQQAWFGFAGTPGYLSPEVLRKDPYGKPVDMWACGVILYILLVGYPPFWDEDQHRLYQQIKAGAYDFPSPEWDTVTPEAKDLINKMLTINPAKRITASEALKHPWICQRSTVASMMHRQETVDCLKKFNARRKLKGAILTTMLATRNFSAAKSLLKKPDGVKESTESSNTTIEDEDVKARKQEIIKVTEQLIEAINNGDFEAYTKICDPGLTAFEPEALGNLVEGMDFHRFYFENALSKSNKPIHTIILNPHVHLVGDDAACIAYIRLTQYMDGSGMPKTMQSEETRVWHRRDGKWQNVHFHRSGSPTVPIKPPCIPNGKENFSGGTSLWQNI
Chain of DYRK2 (human) (Q92630 whole entry, looked up): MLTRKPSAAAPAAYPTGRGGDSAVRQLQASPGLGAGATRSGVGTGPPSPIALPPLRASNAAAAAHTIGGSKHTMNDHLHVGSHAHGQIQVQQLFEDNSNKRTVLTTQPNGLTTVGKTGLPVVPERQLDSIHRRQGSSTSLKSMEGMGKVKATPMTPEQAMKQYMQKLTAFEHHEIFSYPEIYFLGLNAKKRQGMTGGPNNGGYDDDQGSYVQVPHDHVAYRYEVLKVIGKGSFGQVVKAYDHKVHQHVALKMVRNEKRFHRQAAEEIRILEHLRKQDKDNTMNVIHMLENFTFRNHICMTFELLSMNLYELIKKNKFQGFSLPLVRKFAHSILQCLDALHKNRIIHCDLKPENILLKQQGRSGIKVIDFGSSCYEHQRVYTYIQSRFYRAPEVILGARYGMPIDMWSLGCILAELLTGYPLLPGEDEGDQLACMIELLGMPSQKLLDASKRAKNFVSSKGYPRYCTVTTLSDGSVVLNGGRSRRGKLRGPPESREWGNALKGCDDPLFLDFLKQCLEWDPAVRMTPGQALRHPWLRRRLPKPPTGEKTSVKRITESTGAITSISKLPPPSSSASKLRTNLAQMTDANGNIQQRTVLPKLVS
Chain of FRK (human) (P42685 whole entry, looked up): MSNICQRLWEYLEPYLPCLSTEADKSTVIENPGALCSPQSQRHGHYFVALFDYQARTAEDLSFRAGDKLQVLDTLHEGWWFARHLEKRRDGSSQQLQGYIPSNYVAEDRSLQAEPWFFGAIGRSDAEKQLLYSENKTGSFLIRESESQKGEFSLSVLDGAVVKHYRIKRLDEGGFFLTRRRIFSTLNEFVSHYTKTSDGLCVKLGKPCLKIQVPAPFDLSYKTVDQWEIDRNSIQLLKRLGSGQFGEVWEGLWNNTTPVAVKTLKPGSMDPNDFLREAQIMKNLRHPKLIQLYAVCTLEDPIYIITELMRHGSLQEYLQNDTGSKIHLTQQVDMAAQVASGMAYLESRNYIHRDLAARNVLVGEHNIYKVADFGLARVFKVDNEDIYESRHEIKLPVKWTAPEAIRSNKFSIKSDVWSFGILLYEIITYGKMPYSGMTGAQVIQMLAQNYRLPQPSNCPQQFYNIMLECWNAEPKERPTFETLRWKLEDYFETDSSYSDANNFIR
Chain of MAP2K1 (human) (Q02750 whole entry, looked up): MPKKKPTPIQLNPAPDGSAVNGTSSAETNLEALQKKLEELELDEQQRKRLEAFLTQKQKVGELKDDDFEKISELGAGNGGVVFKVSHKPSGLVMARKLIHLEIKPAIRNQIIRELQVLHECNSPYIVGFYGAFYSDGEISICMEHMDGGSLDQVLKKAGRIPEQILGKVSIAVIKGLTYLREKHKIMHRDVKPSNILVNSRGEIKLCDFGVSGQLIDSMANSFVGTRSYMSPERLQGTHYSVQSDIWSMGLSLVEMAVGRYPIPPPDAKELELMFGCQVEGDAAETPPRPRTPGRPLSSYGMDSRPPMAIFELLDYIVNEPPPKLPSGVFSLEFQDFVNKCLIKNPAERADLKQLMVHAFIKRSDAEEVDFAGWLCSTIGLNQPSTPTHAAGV
Chain of MAP2K2 (human) (P36507 whole entry, looked up): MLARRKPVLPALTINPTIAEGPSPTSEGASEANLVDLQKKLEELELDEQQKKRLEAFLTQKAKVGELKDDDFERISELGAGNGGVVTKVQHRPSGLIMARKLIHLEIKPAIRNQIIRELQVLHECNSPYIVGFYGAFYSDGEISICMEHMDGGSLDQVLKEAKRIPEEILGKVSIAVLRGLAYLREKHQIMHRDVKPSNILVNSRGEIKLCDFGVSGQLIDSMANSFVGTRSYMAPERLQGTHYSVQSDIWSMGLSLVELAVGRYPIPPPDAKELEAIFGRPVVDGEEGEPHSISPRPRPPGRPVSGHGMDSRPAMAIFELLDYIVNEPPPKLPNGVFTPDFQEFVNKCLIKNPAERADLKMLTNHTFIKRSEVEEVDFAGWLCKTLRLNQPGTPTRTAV
Chain of TYRO3 (human) (Q06418 whole entry, looked up): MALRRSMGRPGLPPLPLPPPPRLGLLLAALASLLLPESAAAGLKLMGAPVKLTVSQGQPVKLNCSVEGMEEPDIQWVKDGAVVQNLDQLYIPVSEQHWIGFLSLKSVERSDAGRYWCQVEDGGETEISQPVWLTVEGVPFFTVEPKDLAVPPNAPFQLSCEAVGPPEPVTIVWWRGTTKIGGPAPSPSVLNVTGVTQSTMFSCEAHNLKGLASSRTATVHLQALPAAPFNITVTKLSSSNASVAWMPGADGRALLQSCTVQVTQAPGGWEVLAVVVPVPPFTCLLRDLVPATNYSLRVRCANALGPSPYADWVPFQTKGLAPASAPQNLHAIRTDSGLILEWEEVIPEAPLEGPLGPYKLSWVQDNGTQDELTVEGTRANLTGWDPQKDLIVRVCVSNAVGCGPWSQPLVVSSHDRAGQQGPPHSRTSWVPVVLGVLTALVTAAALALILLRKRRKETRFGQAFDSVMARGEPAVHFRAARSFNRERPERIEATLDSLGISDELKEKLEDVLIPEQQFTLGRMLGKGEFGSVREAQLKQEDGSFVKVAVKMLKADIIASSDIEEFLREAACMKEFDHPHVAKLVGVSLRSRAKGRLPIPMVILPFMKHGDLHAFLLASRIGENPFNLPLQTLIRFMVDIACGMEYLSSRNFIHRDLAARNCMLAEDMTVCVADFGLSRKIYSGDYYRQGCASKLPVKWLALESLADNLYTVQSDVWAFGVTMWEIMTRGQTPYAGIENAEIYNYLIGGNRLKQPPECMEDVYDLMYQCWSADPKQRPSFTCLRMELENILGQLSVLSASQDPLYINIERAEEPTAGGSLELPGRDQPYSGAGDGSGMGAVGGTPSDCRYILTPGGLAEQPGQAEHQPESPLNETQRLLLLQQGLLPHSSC
Chain of SRPK2 (human) (P78362 whole entry, looked up): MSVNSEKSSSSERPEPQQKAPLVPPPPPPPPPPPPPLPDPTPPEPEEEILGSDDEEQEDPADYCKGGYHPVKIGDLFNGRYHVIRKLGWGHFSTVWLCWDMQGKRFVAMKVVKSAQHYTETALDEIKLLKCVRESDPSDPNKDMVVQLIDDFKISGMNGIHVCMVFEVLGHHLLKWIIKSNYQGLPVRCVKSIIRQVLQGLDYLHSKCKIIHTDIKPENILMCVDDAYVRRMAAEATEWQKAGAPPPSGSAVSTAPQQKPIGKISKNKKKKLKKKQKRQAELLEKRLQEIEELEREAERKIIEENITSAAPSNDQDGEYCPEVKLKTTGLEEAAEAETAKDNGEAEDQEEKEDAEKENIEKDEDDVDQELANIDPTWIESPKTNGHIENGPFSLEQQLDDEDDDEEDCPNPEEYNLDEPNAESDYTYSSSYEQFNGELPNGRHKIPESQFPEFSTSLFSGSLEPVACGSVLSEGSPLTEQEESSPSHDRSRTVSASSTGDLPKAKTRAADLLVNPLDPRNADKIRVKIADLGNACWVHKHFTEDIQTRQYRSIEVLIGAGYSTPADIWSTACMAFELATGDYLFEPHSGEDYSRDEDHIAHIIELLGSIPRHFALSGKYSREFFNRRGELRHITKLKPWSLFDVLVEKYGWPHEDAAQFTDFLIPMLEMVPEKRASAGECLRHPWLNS
Chain of CDK6 CCND3 (human) (P30281 whole entry, looked up): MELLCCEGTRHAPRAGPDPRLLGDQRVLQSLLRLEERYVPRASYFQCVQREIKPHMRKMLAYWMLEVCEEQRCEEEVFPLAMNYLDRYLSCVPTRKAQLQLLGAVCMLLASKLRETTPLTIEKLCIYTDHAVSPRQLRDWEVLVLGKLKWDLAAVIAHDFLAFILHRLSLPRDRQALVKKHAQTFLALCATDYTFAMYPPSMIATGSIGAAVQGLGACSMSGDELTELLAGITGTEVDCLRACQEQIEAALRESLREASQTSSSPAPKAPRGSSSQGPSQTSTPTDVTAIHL
Chain of CDK6 CCND3 (human) (Q00534 whole entry, looked up): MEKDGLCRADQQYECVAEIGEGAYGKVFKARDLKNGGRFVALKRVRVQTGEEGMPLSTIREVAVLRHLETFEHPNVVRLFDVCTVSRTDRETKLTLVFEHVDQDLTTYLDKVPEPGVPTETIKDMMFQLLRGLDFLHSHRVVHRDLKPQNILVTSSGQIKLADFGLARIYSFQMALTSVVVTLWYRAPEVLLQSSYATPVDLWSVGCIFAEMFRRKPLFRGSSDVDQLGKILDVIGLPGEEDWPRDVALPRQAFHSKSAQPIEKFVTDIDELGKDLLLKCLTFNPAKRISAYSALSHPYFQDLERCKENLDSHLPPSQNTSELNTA

`CCCNC(=O)Nc1ccc(Oc2ncnc3cc(OC)c(OC)cc23)cc1Cl` showed a residual activity (CSF1R (human)) of 51.1%, a residual activity (SRPK2 (human)) of 91.1% and a residual activity (PRKD2 (human)) of 94.3%. It also gave a residual activity (BRSK2 (human)) of 96.7%, a residual activity (TEC (human)) of 119% and a residual activity (SRPK1 (human)) of 102%. For the same molecule, the residual activity (RET (human)) was 8.42%, the residual activity (MAP2K2 (human)) was 99.9% and the residual activity (RAF1 (human)) was 85.4%. The residual activity (CDK6 CCND3 (human)) was 89.5%, the residual activity (RPS6KA6 KD1 KD2 (human)) was 102% and the residual activity (DYRK2 (human)) was 108%. The residual activity (CAMK2D (human)) was 89.4%, the residual activity (RPS6KA4 KD2 (human)) was 98.5% and the residual activity (TYRO3 (human)) was 102%. For the same molecule, the residual activity (FLT3 (human)) was 82.1%, the residual activity (CHEK2 (human)) was 80% and the residual activity (VRK1 (human)) was 104%. For the same molecule, the residual activity (TGFBR2 (human)) was 109%, the residual activity (EPHA2 (human)) was 104% and the residual activity (MAP2K1 (human)) was 99.2%. It also gave a residual activity (ACVR1B (human)) of 99.6%, a residual activity (HCK (human)) of 88.7% and a residual activity (EPHB3 (human)) of 93.7%. It also gave a residual activity (DYRK1A (human)) of 96.9%, a residual activity (RPS6KB1 (human)) of 90.6% and a residual activity (SRMS (human)) of 105%. It also gave a residual activity (NEK2 (human)) of 92.3%, a residual activity (FGFR1 (human)) of 75.4% and a residual activity (MAP3K14 (human)) of 109%. It also gave a residual activity (CSNK1G2 (human)) of 84.8%, a residual activity (DYRK3 (human)) of 99.7% and a residual activity (BRSK1 (human)) of 98.5%. For the same molecule, the residual activity (CLK1 (human)) was 96.2%, the residual activity (FRK (human)) was 87.2% and the residual activity (DYRK1B (human)) was 104%. The residual activity (GSG2 (human)) was 99.1%, the residual activity (CDK5 CDK5R1 p35 (human)) was 98% and the residual activity (NEK6 (human)) was 105%. The residual activity (PLK3 (human)) was 95%, the residual activity (MERTK (human)) was 67.7% and the residual activity (CSNK1A1 (human)) was 98.9%.

Work on `O=c1cc(-c2cccc3c2Sc2ccccc2S3)oc(N2CCOCC2)c1` yielded a residual activity (CSF1R (human)) of 91.9%, a residual activity (SRPK2 (human)) of 110% and a residual activity (PRKD2 (human)) of 105%. It also gave a residual activity (BRSK2 (human)) of 101%, a residual activity (TEC (human)) of 198% and a residual activity (SRPK1 (human)) of 105%. It also gave a residual activity (RET (human)) of 82.4%, a residual activity (MAP2K2 (human)) of 81.8% and a residual activity (RAF1 (human)) of 94.7%. It also gave a residual activity (CDK6 CCND3 (human)) of 106%, a residual activity (RPS6KA6 KD1 KD2 (human)) of 98.2% and a residual activity (DYRK2 (human)) of 104%. For the same molecule, the residual activity (CAMK2D (human)) was 104%, the residual activity (RPS6KA4 KD2 (human)) was 88.1% and the residual activity (TYRO3 (human)) was 105%. The residual activity (FLT3 (human)) was 98.4%, the residual activity (CHEK2 (human)) was 102% and the residual activity (VRK1 (human)) was 90.7%. The residual activity (TGFBR2 (human)) was 93.4%, the residual activity (EPHA2 (human)) was 96.2% and the residual activity (MAP2K1 (human)) was 94.9%. For the same molecule, the residual activity (ACVR1B (human)) was 114%, the residual activity (HCK (human)) was 102% and the residual activity (EPHB3 (human)) was 105%. The residual activity (DYRK1A (human)) was 95%, the residual activity (RPS6KB1 (human)) was 91.5% and the residual activity (SRMS (human)) was 93.8%. The residual activity (NEK2 (human)) was 103%, the residual activity (FGFR1 (human)) was 99.2% and the residual activity (MAP3K14 (human)) was 94.9%. It also gave a residual activity (CSNK1G2 (human)) of 93.3%, a residual activity (DYRK3 (human)) of 84.3% and a residual activity (BRSK1 (human)) of 98.2%. For the same molecule, the residual activity (CLK1 (human)) was 103%, the residual activity (FRK (human)) was 99.5% and the residual activity (DYRK1B (human)) was 101%. For the same molecule, the residual activity (GSG2 (human)) was 106%, the residual activity (CDK5 CDK5R1 p35 (human)) was 99.5% and the residual activity (NEK6 (human)) was 103%. The residual activity (PLK3 (human)) was 98.1%, the residual activity (MERTK (human)) was 97% and the residual activity (CSNK1A1 (human)) was 94.9%.
